# Measured values taken from patent US20260274794A1, “COMPOUNDS, COMPOSITIONS, AND METHOD OF INHIBITING TAU PROTEIN AND ALPHASYNUCLEIN AGGREGATION” (Purdue Research Foundation, priority 2023, published 2026).
# How the values were obtained:
# α-syn [1] = target: T1, α-syn (Homo sapiens, UniProt P37840); assay: PICUP assay of α-syn oligomerization; type: biochemical; parameters: purchased rPeptide, LLC (Watkinsville, GA); conditions: for α-syn oligomerization (PICUP crosslinking): compound 50 μM; for α-syn oligomer formation, PICUP dose-response: compound 3.125-50 μM
# Description: To force the oligomerization by cross-linking, α-syn (from Rpeptide, LLC) and tau isoform 2N4R were diluted in 10 mM phosphate buffer (pH 7.4) to reach a final concentration of 10 μM [27]. Different compounds were added to the protein solution at a final concentration of 50 μM, resulting in a molar ratio of 1:5. To confirm the gradual effect of the compounds on the inhibition of α-syn oligomerization, compounds were tested at final concentration of 3.125, 6.25, 12.5, 25, and 50 μM. The controls consisted of samples without light exposition, without Ru(bpy), and without compound (i.e., 0.125% DMSO). The cross-linking reaction was initiated by the addition of 2 μL of Ru(bpy) (300 μM final concentration) and 2 μL ammonium persulfate (6 mM final concentration). Samples were irradiated immediately. Light exposition was of 1 second duration for ca-syn and 3 second duration for tau isoform 2N4R, with a 53 W (120 V) incandescent lamp installed in a homemade dark-box. Each tube contained a final volume of 20 μL. After irradiation, 8.3 μL. of Lammeli loading buffer containing 15% β-mercaptoethanol was immediately added to the solution, followed by incubation at 95° C. for 10 minutes. The cross-linked samples were separated on a 16% SDS-Page gel and visualized by Coomassie blue staining.
# One end point used to verify the propensity of misfolded protein in the drug discovery field is the inhibition of oligomer formation. The photo-induced cross-linking of unmodified proteins (PICUP) assay was used to investigate α-syn (60 μM) and tau isoform 2N4R (6 μM) oligomerization in the presence of eight amide compounds (2, 4, 5, 6, 7, 8, 13, and 17 at 50 μM, i.e., ~molar ratio 1:8 for tau). After being subjected to short light exposure, α-syn and tau were cross-linked and Coomassie-stained resolved as a higher molecular weight compared to control (0.125% DMSO). […] Compound 13 was used as a negative control for the α-syn PICUP.
# PICUP assays were performed with different concentrations (50 μM, 25 μM, 12.5 μM, 6.25 μM, 3.125 μM; control=0.125% DMSO) for each lead compound.
# [2] = system: M17D-TR/αS-3K::YFP neuroblastoma cells; assay: α-Syn inclusion assay in dox-inducible neuroblastoma cells; type: cell-based; conditions: for reduction of inclusions: lower concentrations (below 40 μM)
# Description: Dox-inducible neuroblastoma cells M17D-TR/αS-3K::YFP were used according to the published experimental procedure. For this cell-based assay, the cellular density consisted of 30,000 cells per well in a 96-well plate format. After 24 h of seeding the plates, compounds were introduced at ranging concentrations of 5 to 40 μM for a period of 24 h. After, the induction of the αS-3K::YFP transgene expression was initiated by adding dox (1 ug per mL, final concentration in culture media). Cells were incubated in the Incucyte Zoom 2000 platform (Essen Biosciences), where the acquisition of images (green, bright field) occurred continuously. After 48 hours of induction, inclusion formation and cell growth were assessed. To determine the level of different proteins by western blotting, α-syn monoclonal antibody 41312 (Thermofisher, Waltham, MA; 1:1000) and GAPDH polyclonal antibody (Sigma-Aldrich, St. Louis, MO, G9545; 1:5000) were used.
# To evaluate the effects of compounds on inclusion formation and cell survival, M17D neuroblastoma cells that express an α-syn-derived αS-3K::YFP fusion protein in a doxycycline-inducible fashion were used. The cells were treated with 0.1% DMSO (control) and compounds 13, 2, 8, and 17 at various concentrations at t=24 hrs. Cells were induced with dox at t=48 hours. Punctate YFP signals were measured and normalized to 0.1% DMSO at t=96 hours. Eight independent experiments (N=8; n=14; except DMSO, n=30) were performed. The familial PD-linked α-syn missense mutation E46K is amplified by α-syn E35K+E46K+E61K (=αS3K), which results in round cytoplasmic α-syn-based inclusions in cultured cells. αS3K expression is responsible for cell stress/toxicity and delayed growth of neuroblastoma cells. […] Therefore, this assay was selected to evaluate the effect of the compound 13, as a weak to non-inhibitor of aggregation, and the three best anti-aggregation inhibitors, namely compounds 2, 8, and 17 (FIG. 6). […] Western blot analyses for total α-syn, normalized to calnexin (loading control), were performed to determine the compound effect on α-syn protein level due to degradation or non-specific effect on transgene expression.
# α-syn [3] = target: T1, α-syn; assay: Western blot (anti-oligo A11, anti-α-syn) of uncross-linked α-syn; type: biochemical; conditions: compound 600 μM, α-syn 60 μM, 37° C., 24 hours
# Description: To validate the PICUP results, the uncross linked α-syn (produced in Dr. Rochet lab) was incubated at a final concentration of 60 μM in 10 mM phosphate buffer (pH 7.4) with the presence of vehicle (1.5% DMSO), the amide compounds of interest (Compounds 2, 8, 17), and the weak anti-fibrillization inhibitor (compound 13). Compounds were tested at a final concentration of 600 μM (molar ratio 1:10). Samples were incubated for 24 h and 48 h with constant shaking 300 rpm at 37° C. (VWR Thermal Shake Touch, Troemner, LLC, Thorofare, NJ). After completion of the incubation time, samples were mixed with one third volume of above-mentioned loading buffer and separated by electrophoresis in a 16% SDS-Page gel. […] Nitrocellulose membranes were exposed to the monoclonal antibodies diluted at 1/1000 using a 5% non-fat dried milk with TBS and 0.1% Tween-20 (TBS-T) for 12 h at 4° C. Peroxidase conjugated secondary antibodies consisted of an anti-rabbit (Rockland Immunochemicals, inc., Pottstown, PA, cat. #611-1322-0100) and an anti-mouse (Rockland, cat. #610-1319-0100) utilized at a dilution of 1/5000 in 5% non-fat dried milk with TBS-T for one hour at room temperature. The membranes were then exposed to a 1:1 ratio of enhanced chemiluminescent solution (Thermo Scientific, Rockford, IL, cat. #32209) for one minute before the acquisition of images using a SynGene G;Box scanner (model Chemi XR 5 and the G:Box Chemi-XRQ GENESYS software.
# One limitation of the PICUP is the generation of free radicals which can be quenched by aromatic compounds resulting in false positives. For this reason, results obtained by PICUP were validated using the uncross-linked α-syn. High concentration of different compounds (600 μM; molar ratio of 1:10) were incubated at 37° C. for 24 hours with 60 μM of α-syn and separated by electrophoresis in 16% SDS-PAGE gels. Western blots using polyclonal anti-oligo A11 and monoclonal anti-α-syn were assessed to detect the high molecular weight oligomers and monomeric α-syn, respectively.
# α-synuclein (α-syn) = target: T2, α-synuclein (α-syn) (Homo sapiens, UniProt P37840); assay: Thioflavin T (ThT) fluorescence assay of α-syn fibril formation; type: biochemical; conditions: compound 3.125-100 μM, α-syn 2 μM, plateau phase
# T2 construct: purchased rPeptide, LLC (Watkinsville, GA)
SMILES,α-syn oligomerization (PICUP crosslinking) (α-syn [1]),"α-syn oligomer formation, PICUP dose-response (α-syn [1])",reduction of inclusions [2],oligomeric species bands of uncross-linked α-syn (Western blot) (α-syn [3]),"α-syn fibrillization, ThT dose-response (α-synuclein (α-syn))",toxicity (confluence) ([2]; 40 μM),"inclusion formation ([2]; 40 μM, M17D αS3K cells)",α-syn protein level (Western blot) ([2]; low concentration (5-10 μM) only)
"O=C(Nc1cccc2[nH]ccc12)c1ccccc1 [Compound 2, N-(1H-indol-4-yl)benzamide]",effectively prevented this crosslinking,prevented α-syn oligomer formation in a dose-dependent manner,None of these compounds exhibited a significant reduction of inclusions,"narrow, less intense bands compared to control",reduction in protein fibrillization when subjected to higher concentrations,–,–,–
"O=C(Nc1cccc2[nH]ccc12)c1ccc(F)cc1 [Compound 8, 4-fluoro-N-(1H-indol-4-yl)benzamide]",effectively prevented this crosslinking,prevented α-syn oligomer formation in a dose-dependent manner,None of these compounds exhibited a significant reduction of inclusions,"narrow, less intense bands compared to control",reduction in protein fibrillization when subjected to higher concentrations,small degree of toxicity,reduced inclusion formation,reduced α-syn levels
"O=C(Nc1ccc2[nH]ccc2c1)c1ccccc1Cl [Compound 13, 2-chloro-N-(1H-indol-5-yl)benzamide]",–,–,None of these compounds exhibited a significant reduction of inclusions,did not reduce the intensity of the bands,–,–,–,–
